# Reference: US7205382B2, “Peptides, the production and use thereof for binding immunoglobulins” (Fresenius Medical Care Affina GmbH, priority 2000, dated 2007)
# Bridge positions count the residues as written; N and C are the ends. Square brackets hold non-standard residues; d marks the D form. Ends that are not written are not given here. cellulose = not defined here; βAla = NCCC(=O)O
# What was measured:
# Type in all cases: binding
# Design in all cases: key: No binding of immunoglobulin for the defined peptide variant, detection negative: 0; Binding of immunoglobulin for the defined peptide variant, detection positive: +
# human IgG-Fc = test: Cellulose-immobilized 13-mer peptide variants incubated with human IgG-Fc, anti-human IgG-AP detection; conditions: IgG-Fc 1 μg/ml in blocking buffer, 3 h room temperature
# Protocol: (§1) Peptides consisting of 13 amino acids were synthesized by solid phase synthesis (Houghten, 1985) on a cellulose matrix with (βA)(βA) as a spacer group.
# (§2) The immobilized peptides were tested for their immunoglobulin binding capability by incubation with human IgG-Fc in a buffered solution and by incubation with human plasma.
# (§3) Thus, the peptide variants immobilized on solid phases were washed with T-TBS buffer (136 mM NaCl, 1.6 mM KCl, 0.05% (v/v) Tween 20, 50 mM Tris-HCl, pH 8.0) and subsequently treated with blocking buffers (5% (w/v) saccharose, 4% (w/v) bovine serum albumin in T-TBS). Incubation of the immobilized peptides with IgG-Fc (1 μg/ml) in blocking buffer and human serum (diluted 1:10,000 in blocking buffer) was effected for 3 h at room temperature. For checking the specificity of the binding, buffered serum albumin solution (blocking buffer) without addition was included as a control. Thereafter, the peptide variants immobilized on the solid phases were washed three more times with T-TBS buffer.
# (§4) After incubation with alkaline phosphatase-conjugated anti-human IgG antibody (1.2 μg/ml) in blocking buffer, detection of the immunoglobulin binding was effected by means of NBT (nitroblue tetrazolium chloride)/BCIP (5-bromo-4-chloro-3-indolyl phosphate toluidine salt) as a substrate (200 μl of parent solution (18.75 mg/ml NBT and 9.4 mg/ml BCIP in 67% (v/v) DMSO) in 10 ml developing buffer (100 mM Tris-HCl, 100 mM NaCl, 5 mM MgCl2, pH 9.5)).
# serum albumin = test: Cellulose-immobilized 13-mer peptide variants incubated with serum albumin (negative control), anti-human IgG-AP detection; conditions: blocking buffer without addition, 3 h room temperature
# Protocol: as §1, §2, §3, §4
# [1] = test system: immunoglobulins in human plasma; test: Cellulose-immobilized 13-mer peptide variants incubated with human plasma, anti-human IgG-AP detection; conditions: human plasma as sample, diluted 1:10,000 in blocking buffer, 3 h room temperature
# Protocol: as §1, §2, §3, §4
Result for incubation with human IgG-Fc (immunoglobulin binding detection) (human IgG-Fc),Result for incubation with serum albumin (immunoglobulin binding detection) (serum albumin),Result for incubation with human plasma (immunoglobulin binding detection) [1],Substance
0,0,0,11D: cellulose-bound 13-mer variant DCAWHLGELVDCT-(βA)(βA) (DCAWHLGELVDCT-{βAla-βAla-cellulose}; disulfide 2-12 (inferred); reading uncertain; also: printed as DCAWHLGELVDCT-(βA)(βA))
0,0,0,11C: cellulose-bound 13-mer variant DCAWHLGELVCCT-(βA)(βA) (DCAWHLGELVCCT-{βAla-βAla-cellulose}; not fully specified (bridges); printed as DCAWHLGELVCCT-(βA)(βA); cysteine pairing not given here; reading uncertain)
0,0,0,03C: cellulose-bound 13-mer variant DCCWHLGELVWCT-(βA)(βA) (DCCWHLGELVWCT-{βAla-βAla-cellulose}; disulfide (positions not given here); not fully specified; printed as DCCWHLGELVWCT-(βA)(βA); reading uncertain)
0,0,0,07K: cellulose-bound 13-mer variant DCAWHLKELVWCT-(βA)(βA) (DCAWHLKELVWCT-{βAla-βAla-cellulose}; disulfide 2-12 (inferred); not fully specified (N-terminus); printed as DCAWHLKELVWCT-(βA)(βA); reading uncertain)
0,0,0,12E: cellulose-bound 13-mer variant DCAWHLGELVWET-(βA)(βA) (DCAWHLGELVWET-{βAla-βAla-cellulose}; not fully specified; printed as DCAWHLGELVWET-(βA)(βA); reading uncertain)
+,0,0,01P: cellulose-bound 13-mer variant PCAWHLGELVWCT-(βA)(βA) (PCAWHLGELVWCT-{βAla-βAla-cellulose}; disulfide 2-12 (inferred); reading uncertain; also: printed as PCAWHLGELVWCT-(βA)(βA))
0,0,0,11I: cellulose-bound 13-mer variant DCAWHLGELVICT-(βA)(βA)
+,0,+,"04R: cellulose-bound 13-mer variant DCARHLGELVWCT-(βA)(βA) (disulfide 2-12 (inferred); not fully specified (N-terminus, C-terminus); printed as DCARHLGELVWCT-(βA)(βA); also: cellulose-bound)"
0,0,0,11P: cellulose-bound 13-mer variant DCAWHLGELVPCT-(βA)(βA)
0,0,0,07H: cellulose-bound 13-mer variant DCAWHLHELVWCT-(βA)(βA) (DCAWHLHELVWCT-{βAla-βAla-cellulose}; disulfide 2-12 (inferred); not fully specified (N-terminus); printed as DCAWHLHELVWCT-(βA)(βA); reading uncertain)

# Continued, substance first:
Substance,Result for incubation with human IgG-Fc (immunoglobulin binding detection) (human IgG-Fc),Result for incubation with serum albumin (immunoglobulin binding detection) (serum albumin),Result for incubation with human plasma (immunoglobulin binding detection) [1]
06D: cellulose-bound 13-mer variant DCAWHDGELVWCT-(βA)(βA) (DCAWHDGELVWCT[βAla][βAla]; disulfide 2-12 (inferred); not fully specified (N-terminus); printed as DCAWHDGELVWCT-(βA)(βA); also: cellulose-bound),+,0,0
"05P: cellulose-bound 13-mer variant DCAWPLGELVWCT-(βA)(βA) (disulfide 2-12 (inferred); not fully specified (N-terminus, C-terminus); printed as DCAWPLGELVWCT-(βA)(βA); also: cellulose-bound)",0,0,0
08G: cellulose-bound 13-mer variant DCAWHLGGLVWCT-(βA)(βA) (DCAWHLGGLVWCT-{βAla-βAla-cellulose}; disulfide 2-12 (inferred); not fully specified (N-terminus); printed as DCAWHLGGLVWCT-(βA)(βA); reading uncertain),0,0,0
"05F: cellulose-bound 13-mer variant DCAWFLGELVWCT-(βA)(βA) (disulfide 2-12 (inferred); not fully specified (N-terminus, C-terminus); printed as DCAWFLGELVWCT-(βA)(βA); also: cellulose-bound)",0,0,0
08W: cellulose-bound 13-mer variant DCAWHLGWLVWCT-(βA)(βA) (DCAWHLGWLVWCT-{βAla-βAla-cellulose}; disulfide 2-12 (inferred); reading uncertain; also: printed as DCAWHLGWLVWCT-(βA)(βA)),0,0,0
07L: cellulose-bound 13-mer variant DCAWHLLELVWCT-(βA)(βA) (DCAWHLLELVWCT-{βAla-βAla-cellulose}; disulfide 2-12 (inferred); not fully specified (N-terminus); printed as DCAWHLLELVWCT-(βA)(βA); reading uncertain),0,0,0
10T: cellulose-bound 13-mer variant DCAWHLGELTWCT-(βA)(βA) (DCAWHLGELTWCT-{βAla-βAla-cellulose}; disulfide 2-12 (inferred); reading uncertain; also: printed as DCAWHLGELTWCT-(βA)(βA)),0,0,0
11G: cellulose-bound 13-mer variant DCAWHLGELVGCT-(βA)(βA),0,0,0
07I: cellulose-bound 13-mer variant DCAWHLIELVWCT-(βA)(βA) (DCAWHLIELVWCT-{βAla-βAla-cellulose}; disulfide 2-12 (inferred); not fully specified (N-terminus); printed as DCAWHLIELVWCT-(βA)(βA); reading uncertain),0,0,0
"05W: cellulose-bound 13-mer variant DCAWWLGELVWCT-(βA)(βA) (disulfide 2-12 (inferred); not fully specified (N-terminus, C-terminus); printed as DCAWWLGELVWCT-(βA)(βA); also: cellulose-bound)",0,0,0
